Test results as given in ChEMBL document CHEMBL1131034, “Synthesis and pharmacological characterization of novel 6-fluorochroman derivatives as potential 5-HT1A receptor antagonists” (J Med Chem, 1998).

Key:
[1] = biological target: T1, 5-hydroxytryptamine receptor 1A (Homo sapiens) (UniProt P08908); test: Antagonist activity against CHO cells expressing the human 5-hydroxytryptamine 1A receptor in a forskolin stimulated adenylate cyclase (FSC) assay.; format: functional, cell-based
T1 sequence (whole entry): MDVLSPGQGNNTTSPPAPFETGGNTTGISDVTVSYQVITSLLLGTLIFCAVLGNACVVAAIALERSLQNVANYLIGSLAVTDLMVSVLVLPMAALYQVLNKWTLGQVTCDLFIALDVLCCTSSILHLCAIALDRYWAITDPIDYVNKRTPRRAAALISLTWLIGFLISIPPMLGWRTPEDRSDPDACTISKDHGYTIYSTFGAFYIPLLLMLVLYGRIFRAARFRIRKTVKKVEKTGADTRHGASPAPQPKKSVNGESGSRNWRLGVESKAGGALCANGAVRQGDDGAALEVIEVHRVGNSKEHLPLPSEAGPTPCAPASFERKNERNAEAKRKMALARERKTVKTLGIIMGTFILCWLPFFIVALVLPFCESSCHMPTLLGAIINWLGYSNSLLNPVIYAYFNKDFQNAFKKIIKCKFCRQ

[2] = biological target: T2, Adrenergic receptor alpha-1 (Rattus norvegicus, UniProt P15823+P23944+P43140); test: Binding affinity against alpha-1 adrenergic receptor on rat cortex using [3H]-prazosin as radioligand.; format: tissue-based, Brain
T2 sequence (P15823 whole entry): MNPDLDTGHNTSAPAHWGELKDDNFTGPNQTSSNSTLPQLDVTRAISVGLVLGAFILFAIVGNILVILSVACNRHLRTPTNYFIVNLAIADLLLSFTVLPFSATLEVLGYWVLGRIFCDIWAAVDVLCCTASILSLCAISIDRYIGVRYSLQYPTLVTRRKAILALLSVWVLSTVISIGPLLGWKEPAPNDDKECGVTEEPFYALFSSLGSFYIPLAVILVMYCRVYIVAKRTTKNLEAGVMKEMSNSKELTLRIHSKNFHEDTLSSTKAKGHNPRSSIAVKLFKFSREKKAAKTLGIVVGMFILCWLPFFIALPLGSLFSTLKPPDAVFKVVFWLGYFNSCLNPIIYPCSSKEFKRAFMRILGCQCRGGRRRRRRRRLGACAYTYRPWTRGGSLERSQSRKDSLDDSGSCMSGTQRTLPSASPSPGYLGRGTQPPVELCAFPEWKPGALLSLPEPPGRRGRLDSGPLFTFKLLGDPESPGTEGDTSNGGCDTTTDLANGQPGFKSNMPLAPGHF
T2 sequence (P23944 whole entry): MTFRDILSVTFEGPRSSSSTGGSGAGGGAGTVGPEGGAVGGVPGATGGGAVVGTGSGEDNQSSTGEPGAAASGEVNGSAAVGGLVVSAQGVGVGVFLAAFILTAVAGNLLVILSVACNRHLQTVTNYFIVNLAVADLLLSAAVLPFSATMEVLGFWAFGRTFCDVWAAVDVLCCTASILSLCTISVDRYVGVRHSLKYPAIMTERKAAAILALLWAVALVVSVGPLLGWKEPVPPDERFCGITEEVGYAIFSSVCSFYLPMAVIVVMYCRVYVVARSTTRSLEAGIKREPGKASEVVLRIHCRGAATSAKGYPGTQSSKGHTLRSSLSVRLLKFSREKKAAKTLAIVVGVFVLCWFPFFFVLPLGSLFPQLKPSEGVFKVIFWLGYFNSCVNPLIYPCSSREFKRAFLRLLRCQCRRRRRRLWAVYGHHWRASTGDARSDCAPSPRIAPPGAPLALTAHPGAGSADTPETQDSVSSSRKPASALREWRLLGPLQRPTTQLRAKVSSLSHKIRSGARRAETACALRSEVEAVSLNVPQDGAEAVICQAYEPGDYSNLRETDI
T2 sequence (P43140 whole entry): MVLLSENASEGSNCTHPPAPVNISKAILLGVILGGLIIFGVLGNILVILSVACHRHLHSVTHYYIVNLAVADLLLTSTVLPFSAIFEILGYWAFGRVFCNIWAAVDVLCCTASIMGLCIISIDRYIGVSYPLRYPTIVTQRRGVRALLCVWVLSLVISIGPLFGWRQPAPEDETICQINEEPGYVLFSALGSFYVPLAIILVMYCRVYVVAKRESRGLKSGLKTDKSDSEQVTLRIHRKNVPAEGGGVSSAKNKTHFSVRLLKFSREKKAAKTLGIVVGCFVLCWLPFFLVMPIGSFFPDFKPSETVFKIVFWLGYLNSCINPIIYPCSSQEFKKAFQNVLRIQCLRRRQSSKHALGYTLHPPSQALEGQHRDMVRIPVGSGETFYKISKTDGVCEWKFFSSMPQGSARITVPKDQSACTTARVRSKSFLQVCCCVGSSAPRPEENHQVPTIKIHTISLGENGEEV

[3] = biological target: Serotonin 1a (5-HT1a) receptor/Adrenergic receptor alpha-1 (Rattus norvegicus) (UniProt P15823+P23944+P43140+P19327); test: Selectivity for 5-HT1A receptor of rat hippocampus and alpha-1 adrenergic receptor of rat cortex.; format: tissue-based
[4] = biological target: T3, 5-hydroxytryptamine receptor 1A (Rattus norvegicus, UniProt P19327); test: Binding affinity against 5-hydroxytryptamine 1A receptor on rat hippocampus using [3H]8-OH-DPAT as radioligand.; format: tissue-based
T3 sequence (P19327 whole entry): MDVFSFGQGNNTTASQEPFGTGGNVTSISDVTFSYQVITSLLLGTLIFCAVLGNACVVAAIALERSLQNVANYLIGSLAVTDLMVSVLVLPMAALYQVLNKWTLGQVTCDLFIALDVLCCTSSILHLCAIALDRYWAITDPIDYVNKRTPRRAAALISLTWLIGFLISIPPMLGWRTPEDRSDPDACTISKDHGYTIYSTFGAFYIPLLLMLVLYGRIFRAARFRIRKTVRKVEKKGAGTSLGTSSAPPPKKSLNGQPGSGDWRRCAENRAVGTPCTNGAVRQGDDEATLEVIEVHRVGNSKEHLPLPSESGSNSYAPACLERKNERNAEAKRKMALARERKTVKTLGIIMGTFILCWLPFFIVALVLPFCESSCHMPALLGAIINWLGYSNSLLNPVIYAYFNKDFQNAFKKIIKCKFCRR

[5] = Binding affinity (Ki) ratio of D2 receptor of rat striatum and 5-HT1A receptor of rat hippocampus.; format: tissue-based
[6] = biological target: D(2) dopamine receptor (Rattus norvegicus, UniProt P61169); test: Binding affinity against dopamine receptor D2 on rat striatum using [3H]spiperone as radioligand.; format: tissue-based
Sequence of D(2) dopamine receptor (P61169 whole entry): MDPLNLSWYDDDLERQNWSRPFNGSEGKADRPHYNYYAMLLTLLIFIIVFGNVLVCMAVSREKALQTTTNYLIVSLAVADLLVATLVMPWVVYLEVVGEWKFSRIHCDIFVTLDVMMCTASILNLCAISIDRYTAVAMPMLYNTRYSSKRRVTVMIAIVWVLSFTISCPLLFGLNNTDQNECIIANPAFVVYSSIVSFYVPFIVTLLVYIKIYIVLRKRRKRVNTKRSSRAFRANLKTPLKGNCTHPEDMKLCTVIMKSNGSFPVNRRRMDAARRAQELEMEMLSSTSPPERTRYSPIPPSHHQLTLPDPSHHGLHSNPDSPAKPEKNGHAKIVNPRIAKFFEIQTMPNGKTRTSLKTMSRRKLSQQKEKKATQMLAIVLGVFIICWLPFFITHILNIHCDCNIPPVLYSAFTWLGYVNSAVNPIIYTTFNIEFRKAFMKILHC

SMILES | FSC recovery [1] | Ki [2] | Selectivity [3] | Ki [4] | Ratio [5] | Ki [6]
COc1ccc(CCCCN(C)CCOc2cc(F)cc3c2OCCC3=O)cc1 | 10% | 1350 nM | 26 | 52.7 nM |  | 
O=C1CCOc2c(OCCNCCCCc3ccc([N+](=O)[O-])cc3)cc(F)cc21 | 3% | 258 nM | 13 | 19.3 nM |  | 
CN(C)c1ccc(CCCCNCCOc2cc(F)cc3c2OCCC3=O)cc1 | 37% | 574 nM | 20 | 28.3 nM | 1.2 | 34.6 nM
O=C1CCOc2c(OCCNCCCCc3ccc(O)cc3)cc(F)cc21 | 26% | 120 nM | 2.2 | 55.8 nM | 0.42 | 23.3 nM
COc1ccccc1CCCCNCCOc1cc(F)cc2c1OCCC2=O | 44% | 75.6 nM | 3.2 | 24 nM | 0.99 | 23.7 nM
CCCOc1ccc(CCCCNCCOc2cc(F)cc3c2OCCC3=O)cc1 | 33% | 856 nM | 18 | 48.8 nM |  | 
COc1ccc(CCCCNCCOc2cc(F)cc3c2OCC/C3=N/O)cc1 | 83% | 207 nM | 7.5 | 27.7 nM | 0.42 | 11.7 nM
COc1ccc(CCCCNCCOc2cc(F)cc3c2OCCC3O)cc1 (single isomer, unassigned; (+)) [listing 2 of 2 here] | 109% |  | 35 |  | 0.23 | 
COc1cccc(CCCCNCCOc2cc(F)cc3c2OCCC3=O)c1 | 3% | 249 nM | 5.7 | 43.4 nM | 2.6 | 111 nM
CCCN(CCCCc1ccc2c(c1)OCO2)CCOc1cc(F)cc2c1OCCC2=O | 6% | 734 nM | 11 | 69 nM | 22 | 1540 nM
O=C1CCOc2c(OCCNCCCCc3ccc(Cl)cc3)cc(F)cc21 | 30% | 98.9 nM | 5.2 | 19 nM | 1.7 | 32.3 nM
COc1ccc(CCCCNCCOc2cc(F)cc3c2OCCC3=O)c(C)c1C | 17% | 152 nM | 2 | 77 nM |  | 
COc1ccc(CCCCNCCOc2cc(F)cc3c2OCCC3=O)c2ccccc12 | -15% | 198 nM | 0.29 | 680 nM | 0.23 | 153 nM
O=C1CCOc2c(OCCNCCCCc3ccccc3)cc(F)cc21 | 16% | 91.5 nM | 2.2 | 41.8 nM | 1.1 | 43.9 nM
COc1ccc(CCCCNCCOc2cc(F)cc3c2OCCC3O)cc1 (stereo in doubt; 34) | 108% |  | 15 |  | 1 | 
COc1ccc(CCCCNCCOc2cc(F)cc3c2OCCC3O)cc1 (stereo in doubt; (-)-34) [listing 2 of 2 here] | 111% |  | 19 |  | 13 | 

More lines, now with the values ahead:

FSC recovery [1] | Ki [2] | Selectivity [3] | Ki [4] | Ratio [5] | Ki [6] | SMILES
59% | 19.1 nM | 2.6 | 7.33 nM | 0.41 | 3.02 nM | COc1ccc(CCCCCNCCOc2cc(F)cc3c2OC(C)CC3)cc1 (stereo unspecified)
76% | 30.8 nM | 3.4 | 8.99 nM | 0.26 | 2.31 nM | COc1ccc(CCCCCCNCCOc2cc(F)cc3c2OC(C)CC3)cc1 (stereo unspecified)
52% | 663 nM | 37 | 18 nM | 3.1 | 55.1 nM | CCOc1ccc(CCCCNCCOc2cc(F)cc3c2OCCC3=O)cc1
49% | 315 nM | 17 | 18.4 nM | 2.1 | 38.8 nM | CSc1ccc(CCCCNCCOc2cc(F)cc3c2OCCC3=O)cc1
 | 73.3 nM |  | 2.1 nM |  | 0.482 nM | COc1ccc(CCCCNCCOc2cc(F)cc3c2OCCC3O)cc1 (single isomer, unassigned; (+)) [listing 1 of 2 here]
44% | 3.57 nM | 8.2 | 0.435 nM | 0.34 | 0.149 nM | COc1ccc(CCCCNCCOc2cc(F)cc3c2OC(C)(C)CC3)cc1
 | 5.86 nM |  | 0.31 nM |  | 4.11 nM | COc1ccc(CCCCNCCOc2cc(F)cc3c2OCCC3O)cc1 (stereo in doubt; (-)-34) [listing 1 of 2 here]
53% | 4.07 nM | 15 | 0.27 nM | 1.2 | 0.312 nM | COc1ccc(CCCCNCCOc2cc(F)cc3c2OC(C)CC3)cc1 (stereo unspecified)
68% | 13.5 nM | 5.8 | 2.34 nM | 1.3 | 2.99 nM | COc1ccc(CCNCCOc2cc(F)cc3c2OCCC3O)cc1 (stereo unspecified)
12% | 2.73 nM | 15 | 0.188 nM | 43 | 8.13 nM | COc1ccc(CCNCCOc2cc(F)cc3c2OC(C)CC3)cc1 (stereo unspecified)
40% | 19.9 nM | 2.1 | 9.53 nM | 0.52 | 4.98 nM | COc1ccc(CCCNCCOc2cc(F)cc3c2OC(C)CC3)cc1 (stereo unspecified)
111% | 175 nM | 9.6 | 18.3 nM | 0.5 | 9.07 nM | COc1ccc(CCCCNCCOc2cc(F)cc3c2OCCC3OC)cc1 (stereo unspecified)
17% | 355 nM | 32 | 11 nM | 6.4 | 70.4 nM | N#Cc1ccc(CCCCNCCOc2cc(F)cc3c2OCCC3=O)cc1
